Experimental data published in ChEMBL document CHEMBL6134888, “Challenging the "Undruggable"─Targeting STAT3 but Identifying Potent TrkA-Targeted Inhibitors” (J Med Chem, 2025).
Calls of active or inactive are those of the source. The rule behind the calls is not given here.

Legend:
[1] = biological target: T1, High affinity nerve growth factor receptor (Homo sapiens, UniProt P04629); conditions: dose 100.0 nM
Description: Inhibition of TRKA (unknown origin) at 100 nM relative to control

[2] = biological target: T1, High affinity nerve growth factor receptor; conditions: dose 100.0 nM; remark: listed apart in the source
Description: Inhibition of TRKA (unknown origin) at 100 nM ScanElect kinase assay relative to control

[3] = system: KM12; assay: cells; conditions: Homo sapiens, KM12, 72 h
Description: Cytotoxicity against human KM12 cells assessed as inhibition of cell viability incubated for 72 hrs by resazurin based analysis

[4] = system: MDA-MB-231; assay: Cytotoxicity against human MDA-MB-231 cells assessed as effect on cell viability incubated for 72 hrs by resazurin based analysis; conditions: MDA-MB-231, 72 h
[5] = biological target: Proto-oncogene tyrosine-protein kinase Src (Homo sapiens, UniProt P12931); assay: Inhibition of SRC (unknown origin) by Z-LYTE Kinase assay
[6] = biological target: Tyrosine-protein kinase JAK2 (Homo sapiens, UniProt O60674); assay: Inhibition of JAK2 (unknown origin) by Z-LYTE Kinase assay
[7] = system: LS174T; assay: Cytotoxicity against human LS174T cells assessed as effect on cell viability incubated for 72 hrs by resazurin based analysis
[8] = biological target: Signal transducer and activator of transcription 3 (Homo sapiens) (UniProt P40763); assay: Induction of thermal stabilization of recombinant STAT3 (127 to 668 residues)(unknown origin) assessed as change in melting temperature incubated for 3 hrs by SYPRO orange dye based DSF analysis
[9] = biological target: Signal transducer and activator of transcription 3 (Homo sapiens) (UniProt P40763); assay: Induction of thermal stabilization of recombinant STAT3 (127 to 668 residues)(unknown origin) incubated for 3 hrs by SYPRO orange dye based DSF analysis; conditions: dose 10-100 µM
[10] = biological target: T1, High affinity nerve growth factor receptor; conditions: dose 100.0 nM; remark: listed apart in the source
Description: Inhibition of TRKA (unknown origin) at 100 nM by Z-LYTE Kinase assay relative to control

[11] = biological target: T1, High affinity nerve growth factor receptor; conditions: dose 10.0 nM
Description: Inhibition of TRKA (unknown origin) at 10 nM by Z-LYTE Kinase assay relative to control

[12] = biological target: L-lactate dehydrogenase A chain (Homo sapiens, UniProt P00338); assay: Inhibition of LDHA (unknown origin)
[13] = biological target: Signal transducer and activator of transcription 3 (Homo sapiens) (UniProt P40763); assay: Induction of thermal stabilization of recombinant STAT3 (127 to 668 residues)(unknown origin) assessed as reduction in fluorescence intensity incubated for 3 hrs by SYPRO orange dye based DSF analysis; conditions: dose 100.0 µM
[14] = biological target: Signal transducer and activator of transcription 3 (Homo sapiens) (UniProt P40763); assay: Binding affinity to STAT3 (unknown origin) SH2 domain by FP assay
[15] = biological target: Signal transducer and activator of transcription 3 (Homo sapiens) (UniProt P40763); assay: Induction of thermal stabilization of STAT3 (unknown origin) at 100 uM by thermal shift assay
[16] = biological target: BDNF/NT-3 growth factors receptor (Homo sapiens, UniProt Q16620); assay: Binding affinity to TRKB (unknown origin) assessed as dissociation constant by KINOMEscan assay
[17] = biological target: Signal transducer and activator of transcription 3 (Homo sapiens) (UniProt P40763); assay: Inhibition of STAT3 in oncostatin M-stimulated human U3A cells at 20 uM pretreated with compound for 1 hr followed by oncostatin M induction and measured after 6 hrs by luciferase assay relative to control; type: cell-based

T1 sequence (P04629 33-796 limits assumed): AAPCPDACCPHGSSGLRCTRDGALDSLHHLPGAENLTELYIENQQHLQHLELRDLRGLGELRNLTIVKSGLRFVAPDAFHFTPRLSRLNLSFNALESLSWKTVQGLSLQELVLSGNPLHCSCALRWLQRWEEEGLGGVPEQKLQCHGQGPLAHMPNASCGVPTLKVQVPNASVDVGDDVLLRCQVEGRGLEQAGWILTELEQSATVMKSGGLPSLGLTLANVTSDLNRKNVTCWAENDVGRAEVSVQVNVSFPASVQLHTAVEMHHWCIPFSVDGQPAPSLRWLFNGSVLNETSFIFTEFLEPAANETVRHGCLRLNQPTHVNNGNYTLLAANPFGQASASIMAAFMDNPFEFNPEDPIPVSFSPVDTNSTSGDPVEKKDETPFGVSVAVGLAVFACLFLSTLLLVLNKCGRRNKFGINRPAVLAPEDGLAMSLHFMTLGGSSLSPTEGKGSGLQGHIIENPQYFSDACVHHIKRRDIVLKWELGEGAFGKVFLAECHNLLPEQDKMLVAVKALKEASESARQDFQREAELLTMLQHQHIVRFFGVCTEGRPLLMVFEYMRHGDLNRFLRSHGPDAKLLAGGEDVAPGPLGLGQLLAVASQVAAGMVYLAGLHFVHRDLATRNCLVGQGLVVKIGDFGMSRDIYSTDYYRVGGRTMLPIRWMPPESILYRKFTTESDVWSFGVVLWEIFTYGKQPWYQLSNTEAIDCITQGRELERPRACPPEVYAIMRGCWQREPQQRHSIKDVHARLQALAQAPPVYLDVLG
Chain of Signal transducer and activator of transcription 3 (Homo sapiens) (P40763 whole entry, the tested form may be a part): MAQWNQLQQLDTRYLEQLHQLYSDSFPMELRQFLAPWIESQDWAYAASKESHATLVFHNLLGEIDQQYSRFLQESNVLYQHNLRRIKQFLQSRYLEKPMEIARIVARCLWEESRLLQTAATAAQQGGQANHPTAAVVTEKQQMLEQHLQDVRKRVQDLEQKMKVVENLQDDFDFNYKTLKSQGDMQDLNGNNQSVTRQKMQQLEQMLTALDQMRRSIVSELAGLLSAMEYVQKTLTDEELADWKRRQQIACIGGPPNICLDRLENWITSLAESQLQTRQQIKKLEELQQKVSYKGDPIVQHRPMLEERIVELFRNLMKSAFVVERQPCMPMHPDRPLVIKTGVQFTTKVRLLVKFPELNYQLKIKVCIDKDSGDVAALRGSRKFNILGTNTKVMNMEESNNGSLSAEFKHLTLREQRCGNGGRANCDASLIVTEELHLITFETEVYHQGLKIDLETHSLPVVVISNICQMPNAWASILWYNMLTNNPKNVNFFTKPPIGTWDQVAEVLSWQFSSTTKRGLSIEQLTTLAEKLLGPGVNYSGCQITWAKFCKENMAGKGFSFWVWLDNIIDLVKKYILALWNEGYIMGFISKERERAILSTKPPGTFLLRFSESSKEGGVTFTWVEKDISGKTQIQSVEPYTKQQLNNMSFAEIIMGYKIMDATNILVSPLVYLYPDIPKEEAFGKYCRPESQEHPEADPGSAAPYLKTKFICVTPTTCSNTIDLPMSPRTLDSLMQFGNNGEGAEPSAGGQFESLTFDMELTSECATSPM
Chain of Proto-oncogene tyrosine-protein kinase Src (P12931 2-536 limits assumed): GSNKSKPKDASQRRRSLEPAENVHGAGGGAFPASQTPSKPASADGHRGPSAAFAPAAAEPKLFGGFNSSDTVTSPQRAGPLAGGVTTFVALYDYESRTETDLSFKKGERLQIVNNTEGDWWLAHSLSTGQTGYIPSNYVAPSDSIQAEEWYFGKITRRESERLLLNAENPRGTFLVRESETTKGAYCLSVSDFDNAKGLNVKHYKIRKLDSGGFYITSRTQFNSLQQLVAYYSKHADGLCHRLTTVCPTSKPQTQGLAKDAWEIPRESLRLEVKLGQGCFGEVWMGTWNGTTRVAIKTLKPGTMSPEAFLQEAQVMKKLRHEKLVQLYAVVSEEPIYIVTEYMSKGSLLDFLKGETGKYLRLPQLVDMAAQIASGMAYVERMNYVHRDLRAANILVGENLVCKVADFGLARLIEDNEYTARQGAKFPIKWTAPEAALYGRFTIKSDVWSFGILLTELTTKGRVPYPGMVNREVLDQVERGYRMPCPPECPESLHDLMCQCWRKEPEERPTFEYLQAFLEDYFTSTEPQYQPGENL
Chain of Tyrosine-protein kinase JAK2 (O60674 whole entry): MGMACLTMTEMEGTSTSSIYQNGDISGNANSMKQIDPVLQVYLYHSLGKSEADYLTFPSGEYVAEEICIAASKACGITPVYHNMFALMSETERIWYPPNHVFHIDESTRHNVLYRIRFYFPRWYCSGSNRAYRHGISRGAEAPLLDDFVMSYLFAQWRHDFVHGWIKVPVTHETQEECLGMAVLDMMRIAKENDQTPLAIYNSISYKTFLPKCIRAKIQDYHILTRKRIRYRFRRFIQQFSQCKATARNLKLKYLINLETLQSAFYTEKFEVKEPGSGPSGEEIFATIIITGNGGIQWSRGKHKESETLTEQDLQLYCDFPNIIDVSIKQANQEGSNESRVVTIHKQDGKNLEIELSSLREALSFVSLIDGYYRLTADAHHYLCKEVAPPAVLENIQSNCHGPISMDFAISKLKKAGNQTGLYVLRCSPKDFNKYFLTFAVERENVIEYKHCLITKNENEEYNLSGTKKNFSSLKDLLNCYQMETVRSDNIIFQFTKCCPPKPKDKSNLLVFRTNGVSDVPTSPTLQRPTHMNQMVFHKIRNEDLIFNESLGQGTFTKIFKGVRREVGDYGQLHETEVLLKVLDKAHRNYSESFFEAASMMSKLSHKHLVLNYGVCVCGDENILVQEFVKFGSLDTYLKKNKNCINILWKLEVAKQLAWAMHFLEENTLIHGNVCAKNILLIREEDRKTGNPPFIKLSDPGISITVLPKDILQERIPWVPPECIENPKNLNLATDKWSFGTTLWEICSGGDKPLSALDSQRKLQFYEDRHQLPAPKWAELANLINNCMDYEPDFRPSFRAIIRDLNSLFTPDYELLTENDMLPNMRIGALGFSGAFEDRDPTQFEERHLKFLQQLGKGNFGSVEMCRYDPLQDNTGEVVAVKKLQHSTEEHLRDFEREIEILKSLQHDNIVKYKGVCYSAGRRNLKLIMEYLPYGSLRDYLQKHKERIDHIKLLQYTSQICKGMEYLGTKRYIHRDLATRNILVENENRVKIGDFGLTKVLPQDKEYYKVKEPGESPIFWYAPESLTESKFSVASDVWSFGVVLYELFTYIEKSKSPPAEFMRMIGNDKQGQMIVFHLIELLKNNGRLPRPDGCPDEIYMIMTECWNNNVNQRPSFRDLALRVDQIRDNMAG
Chain of BDNF/NT-3 growth factors receptor (Q16620 whole entry): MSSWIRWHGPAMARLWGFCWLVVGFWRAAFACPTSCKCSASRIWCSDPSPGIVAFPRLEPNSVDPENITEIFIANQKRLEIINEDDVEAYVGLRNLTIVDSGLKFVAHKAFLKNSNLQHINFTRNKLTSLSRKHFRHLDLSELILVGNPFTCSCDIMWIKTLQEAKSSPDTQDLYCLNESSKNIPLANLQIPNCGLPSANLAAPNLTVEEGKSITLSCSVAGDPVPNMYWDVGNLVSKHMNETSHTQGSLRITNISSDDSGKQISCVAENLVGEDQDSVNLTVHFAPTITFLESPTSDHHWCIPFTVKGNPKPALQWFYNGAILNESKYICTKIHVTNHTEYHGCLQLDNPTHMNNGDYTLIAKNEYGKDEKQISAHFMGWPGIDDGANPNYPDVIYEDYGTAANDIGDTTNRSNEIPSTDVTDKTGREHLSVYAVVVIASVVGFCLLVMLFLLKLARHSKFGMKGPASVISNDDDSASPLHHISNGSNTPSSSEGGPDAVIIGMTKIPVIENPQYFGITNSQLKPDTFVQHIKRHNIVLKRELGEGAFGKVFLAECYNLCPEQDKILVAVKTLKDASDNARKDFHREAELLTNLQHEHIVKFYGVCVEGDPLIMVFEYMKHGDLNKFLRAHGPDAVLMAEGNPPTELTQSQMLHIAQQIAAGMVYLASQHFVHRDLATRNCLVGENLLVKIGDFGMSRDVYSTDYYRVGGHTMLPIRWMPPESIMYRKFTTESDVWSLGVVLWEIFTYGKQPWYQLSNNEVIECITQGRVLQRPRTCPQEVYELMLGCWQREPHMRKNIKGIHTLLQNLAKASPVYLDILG

`CN(C)c1cccc(-c2cnc(N)c(NCc3cccnc3)n2)c1` was tested, and the inhibition [1] was 50%, the inhibition [2] was 31% and the IC50 [3] was 3.7 µM.

For `C[C@@H](Nc1nc(-c2cccc(N(C)C)c2)cnc1N)c1ccccc1`, the IC50 [4] was over 10 µM, the IC50 [5] was 1.11 µM and the IC50 [3] was under 0.3 µM. The IC50 [6] was 0.53 µM and the IC50 [7] was over 10 µM.

`CN(C)c1cccc(-c2cnc(N)c(NCc3cccc(-c4ccccc4)c3)n2)c1` was tested, and the inhibition [1] was 42% and the inhibition [2] was 5%.

Work on `CN(C)c1cccc(-c2cnc(N)c(NCc3cccc(C(F)(F)F)c3)n2)c1` yielded an inhibition [1] of 28% and an inhibition [2] of 4%.

`CN(C)c1cccc(-c2cnc(N)c(NCc3ccccc3)n2)c1` gave an inhibition [1] of 79% and an inhibition [2] of 21%.

`COC(=O)c1cccc(CNc2nc(-c3cccc(N(C)C)c3)cnc2N)c1` was tested, and the inhibition [1] was 48% and the inhibition [2] was 6%.

`C[C@@H](Nc1nc(-c2cc(C(F)(F)F)cc(C(F)(F)F)c2)cnc1N)c1ccccc1` was tested, and the ΔTm [8] was 0.9 °C and the Activity [9] was “Dose-dependent-effect”.

In the case of `C[C@@H](Nc1nc(-c2cccc(C(=O)N(C)C)c2)cnc1N)c1ccccc1`, the inhibition [10] is reported as 74% and the inhibition [11] is reported as 34%.

With `C[C@H](Nc1nc(-c2cc(C(F)(F)F)cc(C(F)(F)F)c2)cnc1N)c1ccccc1` the ΔTm [8] was 0.9 °C and the Activity [9] was “Dose-dependent-effect”.

In the case of `C[C@H](Nc1nc(-c2cccc(C(=O)N(C)C)c2)cnc1N)c1ccccc1`, the inhibition [10] is reported as 0% and the inhibition [11] is reported as 10%.

In the case of `Cc1ccc(CNc2nc(-c3cccc(N(C)C)c3)cnc2N)cc1C`, the inhibition [1] is reported as 35% and the inhibition [2] is reported as 6%.

Work on `Cc1cccc(CNc2nc(-c3cccc(N(C)C)c3)cnc2N)c1` yielded an inhibition [1] of 26% and an inhibition [2] of 6%.

For `Nc1ncc(-c2cc(C(F)(F)F)cc(C(F)(F)F)c2)nc1NCc1ccco1`, the ΔTm [8] was 0.9 °C and the Activity [9] was “Dose-dependent-effect”.

`COC(=O)c1cccc(-c2cnc(N)c(NC(C)c3ccccc3)n2)c1` (racemic) was tested, and the IC50 [12] was 4 µM, the Activity [13] was “Dose-dependent-effect” and the inhibition [1] was 55%. For the same molecule, the Activity [14] was “Active”, the inhibition [2] was 28% and the Activity [15] was “Active”.

Work on `CC(Nc1nc(-c2cccc(C(=O)N(C)C)c2)cnc1N)c1ccccc1` (racemic) yielded an inhibition [1] of 67%, an inhibition [2] of 41% and an IC50 [3] of under 0.3 µM.

Work on `CC(=O)Nc1cccc(-c2cnc(N)c(NC(C)c3ccccc3)n2)c1` (racemic) yielded a Kd [16] of 0.06 µM, an IC50 [5] of 1.56 µM and an IC50 [6] of 0.361 µM.

`CC(Nc1nc(-c2cc(C(F)(F)F)cc(C(F)(F)F)c2)cnc1N)c1ccccc1` (racemic) was tested, and the Activity [13] was “Dose-dependent-effect”, the inhibition [17] was 40% and the inhibition [1] was 10%. For the same molecule, the inhibition [2] was 4%, the IC50 [3] was 5.3 µM and the Activity [15] was “Active”.

In the case of `CC(C)Oc1cccc(-c2cnc(N)c(NC(C)c3ccccc3)n2)c1` (racemic), the Activity [13] is reported as “Dose-dependent-effect”, the inhibition [1] is reported as 21% and the Activity [14] is reported as “Active”. The inhibition [2] was 2% and the Activity [15] was “Active”.

With `CC(Nc1nc(-c2cc(Cl)cc(Cl)c2)cnc1N)c1ccccc1` (racemic) the Activity [13] was “Dose-dependent-effect”, the Activity [14] was “Active” and the inhibition [2] was 0%. The Activity [15] was “Active”.

`CC(Nc1nc(-c2ccc(-c3ccccc3)cc2)cnc1N)c1ccccc1` (racemic) gave an inhibition [2] of 0%.

In the case of `CC(Nc1nc(-c2ccc(F)cc2)cnc1N)c1ccccc1` (racemic), the Activity [13] is reported as “Dose-dependent-effect”, the Activity [14] is reported as “Active” and the inhibition [2] is reported as 4%. The Activity [15] was “Active”.

With `CC(Nc1nc(-c2ccc(NS(C)(=O)=O)cc2)cnc1N)c1ccccc1` (racemic) the inhibition [1] was 38% and the inhibition [2] was 23%.

`CC(Nc1nc(-c2ccc3c(c2)OCO3)cnc1N)c1ccccc1` (racemic) was tested, and the inhibition [2] was 14%.

With `CC(Nc1nc(-c2cccc(F)c2)cnc1N)c1ccccc1` (racemic) the Activity [13] was “Dose-dependent-effect”, the Activity [14] was “Active” and the inhibition [2] was 3%. For the same molecule, the Activity [15] was “Active”.

Work on `CC(Nc1nc(-c2cccc(N(C)C)c2)cnc1N)c1ccc(S(C)(=O)=O)cc1` (racemic) yielded an inhibition [1] of 46% and an inhibition [2] of 4%.

Work on `CC(Nc1nc(-c2cccc(N(C)C)c2)cnc1N)c1cccc(C(F)(F)F)c1` (racemic) yielded an inhibition [1] of 44% and an inhibition [2] of 11%.

Work on `CC(Nc1nc(-c2cccc(O)c2)cnc1N)c1ccccc1` (racemic) yielded an inhibition [2] of 0%.

In the case of `CC(Nc1nc(-c2cccc([N+](=O)[O-])c2)cnc1N)c1ccccc1` (racemic), the Activity [13] is reported as “Dose-dependent-effect”, the inhibition [1] is reported as 55% and the Activity [14] is reported as “Active”. The inhibition [2] was 28% and the Activity [15] was “Active”.

For `CC(Nc1nc(-c2cccc3ccccc23)cnc1N)c1ccccc1` (racemic), the inhibition [2] was 14%.

For `CC(Nc1nc(-c2ccccc2)cnc1N)c1ccccc1` (racemic), the inhibition [1] was 38% and the inhibition [2] was 2%.

`CCC(Nc1nc(-c2cccc(N(C)C)c2)cnc1N)c1ccccc1` (racemic) gave an inhibition [1] of 73% and an inhibition [2] of 24%.

Work on `CN(C)c1cccc(-c2cnc(N)c(NC(c3ccccc3)C(C)(C)C)n2)c1` (racemic) yielded an inhibition [1] of 58% and an inhibition [2] of 11%.

With `COC(=O)c1ccc(-c2cnc(N)c(NC(C)c3ccccc3)n2)cc1` (racemic) the inhibition [2] was 36%.

Molecule `COc1ccc(C(C)Nc2nc(-c3cccc(N(C)C)c3)cnc2N)cc1` (racemic) has an inhibition [1] of 17% and an inhibition [2] of 7%.

In the case of `COc1cccc(C(C)Nc2nc(-c3cccc(N(C)C)c3)cnc2N)c1` (racemic), the inhibition [1] is reported as 66% and the inhibition [2] is reported as 41%.

With `COc1cccc(OC)c1-c1cnc(N)c(NC(C)c2ccccc2)n1` (racemic) the Activity [13] was “Dose-dependent-effect”, the Activity [14] was “Active” and the inhibition [2] was 0%. For the same molecule, the Activity [15] was “Active”.

`Cc1cc(C)cc(-c2cnc(N)c(NC(C)c3ccccc3)n2)c1` (racemic) was tested, and the inhibition [2] was 2%.

`Cc1ccc(C(C)Nc2nc(-c3cccc(N(C)C)c3)cnc2N)cc1` (racemic) was tested, and the inhibition [1] was 11% and the inhibition [2] was 10%.

Work on `O=C(Nc1cnn2ccc(N3CCC[C@@H]3c3cc(F)ccc3F)nc12)N1CC[C@H](O)C1` [LAROTRECTINIB] yielded an IC50 [4] of over 10 µM, an IC50 [3] of 0.0038 µM and an IC50 [7] of over 10 µM.
